Assay results as given in publication PMC11995724, “Antibiotic target discovery by integrated phenotypic and activity-based profiling of electrophilic fragments” (Cell chemical biology, 2025).
Where a name gives a salt, the structure may show the parent alone.

assay: in vitro; details: human, hek293t cells

| SMILES | viability at 48 h, 25 µM [%] |
| --- | --- |
| CC(Cl)C(=O)NC1CCCCCC1 (centres unmarked) [5-O21, 2-chloro-N-cycloheptylpropanamide] | 105 |
| COc1ccc(CC2CCN2C(=O)C(C)Cl)cc1 (centres unmarked) [5-O22, 2-chloro-1-{2-[(4-methoxyphenyl)methyl]azetidin-1-yl}propan-1-one] | 88.3 |
| O=C(CCl)N(Cc1cc(F)ccc1F)CC1CCOCC1 [5-P03, 2-chloro-N-[(2,5-difluorophenyl)methyl]-N-[(oxan-4-yl)methyl]acetamide] | 0.456 |
| N#Cc1ccccc1NC(=O)CCl [5-P04, 2-chloro-N-(2-cyanophenyl)acetamide] | 0.525 |
| CNC(=O)c1cc(OC2CCCN(C(=O)CCl)C2)ccn1 (centres unmarked) [5-P05, 4-{[1-(2-chloroacetyl)piperidin-3-yl]oxy}-N-methylpyridine-2-carboxamide] | 1.84 |
| O=C(CCl)NCc1ccccc1Cn1cccn1 [5-P06, 2-chloro-N-({2-[(1H-pyrazol-1-yl)methyl]phenyl}methyl)acetamide] | 94 |
| N#CCCN(C(=O)CCl)c1ccccc1F [5-P07, 2-chloro-N-(2-cyanoethyl)-N-(2-fluorophenyl)acetamide] | 1.04 |
| CC(C1CC1)N(CC(F)(F)F)C(=O)CCl (centres unmarked) [5-P08, 2-chloro-N-(1-cyclopropylethyl)-N-(2,2,2-trifluoroethyl)acetamide] | 90.7 |
| O=C(CCl)NC1CCN(c2ccncc2)CC1 [5-P09, 2-chloro-N-[1-(pyridin-4-yl)piperidin-4-yl]acetamide hydrochloride] | 48.1 |
| Cc1cccc(NC(=O)C(C)Cl)c1 (centres unmarked) [5-P10, 2-chloro-N-(3-methylphenyl)propanamide] | 96.2 |
| CC(NC(=O)CCl)c1cc(C(F)(F)F)[nH]n1 (centres unmarked) [5-P11, 2-chloro-N-{1-[5-(trifluoromethyl)-1H-pyrazol-3-yl]ethyl}acetamide] | 0.786 |
| CC(C)c1ccc(Cn2[nH]ccc2=NC(=O)CCl)cc1 [5-P12, 2-chloro-N-(2-{[4-(propan-2-yl)phenyl]methyl}-2,3-dihydro-1H-pyrazol-3-ylidene)acetamide] | -0.215 |
| CC(=O)NCc1ccc(C2CCCN2C(=O)CCl)o1 (centres unmarked) [5-P13, N-({5-[1-(2-chloroacetyl)pyrrolidin-2-yl]furan-2-yl}methyl)acetamide] | 0.652 |
| CC(Cl)C(=O)Nc1cccc(C(F)(F)F)c1 (centres unmarked) [5-P14, 2-chloro-N-[3-(trifluoromethyl)phenyl]propanamide] | 90.7 |
| CC(Cl)C(=O)NCc1ncnn1C(C)C (centres unmarked) [5-P15, 2-chloro-N-{[1-(propan-2-yl)-1H-1,2,4-triazol-5-yl]methyl}propanamide] | 125 |
| CC(=O)c1ccc(S(=O)(=O)N2CCN(C(=O)CCl)CC2)cc1 [5-P16, 1-[4-(4-acetylbenzenesulfonyl)piperazin-1-yl]-2-chloroethan-1-one] | 1.74 |
| CC(Cl)C(=O)N(Cc1ccc(Cl)cc1)Cc1cnn(C)c1 (centres unmarked) [5-P17, 2-chloro-N-[(4-chlorophenyl)methyl]-N-[(1-methyl-1H-pyrazol-4-yl)methyl]propanamide] | 116 |
| Cc1cc(C)cc(N(CCC#N)C(=O)CCl)c1 [5-P18, 2-chloro-N-(2-cyanoethyl)-N-(3,5-dimethylphenyl)acetamide] | 0.915 |
| O=C(CN1CCN(C(=O)CCl)CC1)Nc1cccc(F)c1 [5-P19, 2-[4-(2-chloroacetyl)piperazin-1-yl]-N-(3-fluorophenyl)acetamide hydrochloride] | 1.84 |

| SMILES | viability at 48 h, 25 µM [%] |
| --- | --- |
| Cc1cccc(C)c1NC(=O)CCl [5-P20, 2-chloro-N-(2,6-dimethylphenyl)acetamide] | 112 |
| CC(Cl)C(=O)N1Cc2ccoc2CC(C)(C)C1 (centres unmarked) [5-P21, 2-chloro-1-{7,7-dimethyl-4H,5H,6H,7H,8H-furo[3,2-c]azepin-5-yl}propan-1-one] | 132 |
| COc1ccc(C)cc1NC(=O)C(C)Cl (centres unmarked) [5-P22, 2-chloro-N-(2-methoxy-5-methylphenyl)propanamide] | 108 |
| O=C(CCl)Nc1cccc(NC(=O)c2ccccc2)c1 [6-A03, N-[3-(2-chloroacetamido)phenyl]benzamide] | -0.0459 |
| COc1c(C)cnc(CN2CCC(N(C)C(=O)C(C)Cl)CC2)c1C (centres unmarked) [6-A04, 2-chloro-N-{1-[(4-methoxy-3,5-dimethylpyridin-2-yl)methyl]piperidin-4-yl}-N-methylpropanamide] | 124 |
| O=C(CCl)Nc1cc(-n2cnnn2)ccc1Cl [6-A05, 2-chloro-N-[2-chloro-5-(1H-1,2,3,4-tetrazol-1-yl)phenyl]acetamide] | 0.726 |
| Cc1csc(Cl)c1NC(=O)CCl [6-A06, 2-chloro-N-(2-chloro-4-methylthiophen-3-yl)acetamide] | 0.632 |
| CC(Cl)C(=O)NC(C)c1ccc2c(c1)CCCC2 (centres unmarked) [6-A07, 2-chloro-N-[1-(5,6,7,8-tetrahydronaphthalen-2-yl)ethyl]propanamide] | 93.1 |
| O=C(CCl)NCCOc1ccc(F)cc1 [6-A08, 2-chloro-N-[2-(4-fluorophenoxy)ethyl]acetamide] | 1.34 |
| CC(Cl)C(=O)Nc1cc(F)ccc1F (centres unmarked) [6-A09, 2-chloro-N-(2,5-difluorophenyl)propanamide] | 96 |
| Cc1cc(C)c(-c2cc(NC(=O)CCl)n(-c3ccccc3)n2)cc1C [6-A10, 2-chloro-N-[1-phenyl-3-(2,4,5-trimethylphenyl)-1H-pyrazol-5-yl]acetamide] | 0.264 |
| CC(Cl)C(=O)Nc1ccccc1C#N (centres unmarked) [6-A11, 2-chloro-N-(2-cyanophenyl)propanamide] | 97.2 |
| Cc1ccc(C(=O)c2c(NC(=O)CCl)sc3c2CCCC3)cc1 [6-A12, 2-chloro-N-[3-(4-methylbenzoyl)-4,5,6,7-tetrahydro-1-benzothiophen-2-yl]acetamide] | 14 |
| O=C(CCl)Nc1ccc2c(c1)oc1ccccc12 [6-A13, 2-chloro-N-{8-oxatricyclo[7.4.0.0,2,7]trideca-1(9),2(7),3,5,10,12-hexaen-5-yl}acetamide] | -0.0548 |
| O=C(CCl)NCCOc1ccc2ccccc2c1 [6-A14, 2-chloro-N-[2-(naphthalen-2-yloxy)ethyl]acetamide] | 0.0621 |
| CC(Cl)C(=O)Nc1cc(Cl)ccc1Cl (centres unmarked) [6-A15, 2-chloro-N-(2,5-dichlorophenyl)propanamide] | 86.9 |
| COc1ccc(Cl)cc1CNC(=O)CCl [6-A16, 2-chloro-N-[(5-chloro-2-methoxyphenyl)methyl]acetamide] | 0.564 |
| N#CCCN(C(=O)CCl)c1cccc(Cl)c1 [6-A17, 2-chloro-N-(3-chlorophenyl)-N-(2-cyanoethyl)acetamide] | -0.154 |
| CC(NC(=O)CCl)c1ccc2ncsc2c1 (centres unmarked) [6-A18, N-[1-(1,3-benzothiazol-6-yl)ethyl]-2-chloroacetamide] | 2.3 |

| SMILES | viability at 48 h, 25 µM [%] |
| --- | --- |
| CN(CC1CCCCC1)C(=O)C(C)(C)NC(=O)CCl [6-A19, 2-(2-chloroacetamido)-N-(cyclohexylmethyl)-N,2-dimethylpropanamide] | 61.9 |
| CCC(C)n1nccc1NC(=O)C(C)Cl (centres unmarked) [6-A20, N-[1-(butan-2-yl)-1H-pyrazol-5-yl]-2-chloropropanamide] | 84.8 |
| CC(Cl)C(=O)Nc1sc2c(c1C(N)=O)CCC2 (centres unmarked) [6-A21, 2-(2-chloropropanamido)-4H,5H,6H-cyclopenta[b]thiophene-3-carboxamide] | 119 |
| O=C(CCl)NCc1ccccc1[N+](=O)[O-] [6-A22, 2-chloro-N-[(2-nitrophenyl)methyl]acetamide] | 0.388 |
| O=C(CCl)Nc1ncc[nH]1 [6-B03, 2-chloro-N-(1H-imidazol-2-yl)acetamide hydrochloride] | 37.4 |
| O=C(CCl)NCc1coc(Cl)n1 [6-B04, 2-chloro-N-[(2-chloro-1,3-oxazol-4-yl)methyl]acetamide] | 106 |
| CC(Cl)C(=O)NC1COCc2ccccc21 (centres unmarked) [6-B05, 2-chloro-N-(3,4-dihydro-1H-2-benzopyran-4-yl)propanamide] | 106 |
| CC(Cl)C(=O)Nc1ccc(S(N)(=O)=O)cc1 (centres unmarked) [6-B06, 2-chloro-N-(4-sulfamoylphenyl)propanamide] | 101 |
| CC(Cl)C(=O)NCc1cc2sccc2s1 (centres unmarked) [6-B07, 2-chloro-N-({thieno[3,2-b]thiophen-2-yl}methyl)propanamide] | 109 |
| COc1ccc(NC(=O)C(C)Cl)c([N+](=O)[O-])c1 (centres unmarked) [6-B08, 2-chloro-N-(4-methoxy-2-nitrophenyl)propanamide] | 90.1 |
| Cn1ccc(-c2nc(CNC(=O)CCl)cs2)n1 [6-B09, 2-chloro-N-{[2-(1-methyl-1H-pyrazol-3-yl)-1,3-thiazol-4-yl]methyl}acetamide hydrochloride] | 1.33 |
| CC(C)NS(=O)(=O)c1ccc(NC(=O)C(C)Cl)cc1 (centres unmarked) [6-B10, 2-chloro-N-{4-[(propan-2-yl)sulfamoyl]phenyl}propanamide] | 98.5 |
| CC(Cl)C(=O)N1CCN(C(=O)CN2C(=O)CCC2=O)CC1 (centres unmarked) [6-B11, 1-{2-[4-(2-chloropropanoyl)piperazin-1-yl]-2-oxoethyl}pyrrolidine-2,5-dione] | 106 |
| CC(Cl)C(=O)N1CCN(S(=O)(=O)c2ccccc2)CC1 (centres unmarked) [6-B12, 1-[4-(benzenesulfonyl)piperazin-1-yl]-2-chloropropan-1-one] | 100 |
| COCC(NC(=O)C(C)Cl)c1ccccn1 (centres unmarked) [6-B13, 2-chloro-N-[2-methoxy-1-(pyridin-2-yl)ethyl]propanamide] | 106 |
| CC(Cl)C(=O)NC1(c2noc(C(F)F)n2)CCC1 (centres unmarked) [6-B15, 2-chloro-N-{1-[5-(difluoromethyl)-1,2,4-oxadiazol-3-yl]cyclobutyl}propanamide] | 91.8 |
| CC(Cl)C(=O)NC(C)c1ccn(C)n1 (centres unmarked) [6-B16, 2-chloro-N-[1-(1-methyl-1H-pyrazol-3-yl)ethyl]propanamide] | 103 |
| COc1cccc([C@H]2C[C@H](N(C)C(=O)C(C)Cl)C2)c1 (some centres unmarked) [6-B17, 2-chloro-N-methyl-N-[(1r,3r)-3-(3-methoxyphenyl)cyclobutyl]propanamide] | 79.7 |
